Measured values as given in patent publication US12060347B2 (BRISTOL-MYERS SQUIBB COMPANY, priority 2016, dated 2024).

Target: T1, human PAR4 (Homo sapiens, UniProt Q96RI0)
T1 construct: expressed in transfected cells; host or cells: HEK293 PAR4 Clone 1.2A (BMS Arctic ID 383940)
T1 sequence (Q96RI0 18-385): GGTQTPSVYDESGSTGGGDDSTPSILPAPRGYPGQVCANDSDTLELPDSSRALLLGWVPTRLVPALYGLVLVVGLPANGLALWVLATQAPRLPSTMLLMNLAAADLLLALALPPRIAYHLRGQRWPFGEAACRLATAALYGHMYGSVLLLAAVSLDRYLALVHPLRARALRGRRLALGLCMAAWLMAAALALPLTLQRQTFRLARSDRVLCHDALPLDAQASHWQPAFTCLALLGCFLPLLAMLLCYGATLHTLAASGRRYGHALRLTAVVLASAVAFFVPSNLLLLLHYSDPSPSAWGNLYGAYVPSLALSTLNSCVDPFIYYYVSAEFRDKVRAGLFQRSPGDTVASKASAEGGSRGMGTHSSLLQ
Assay: PAR4 FLIPR assay: antagonism of agonist-peptide-induced calcium mobilization in PAR4-expressing HEK293 cells
Format: cell-based
Details: H-Ala-Phe(4-F)-[…]NH2-induced intracellular calcium mobilization, 11-point curves

IC50 [nM] | SMILES
2.7 | COc1cnc2c(-c3nc4c(Cl)c(F)c(OC[C@@H](C)OC(=O)Nc5cnc(Cl)nc5)cc4s3)cc(C)cc2n1 [Example 401, (R)-1-((4-chloro-5-fluoro-2-(2-methoxy-7-methylquinoxalin-5-yl)benzo[d]thiazol-6-yl)oxy)propan-2-yl (2-chloropyrimidin-5-yl)carbamate]
3.7 | COc1cnc2c(-c3nc4c(Cl)c(F)c(OC[C@@H](C)OC(=O)Nc5cnc(F)c(C)c5)cc4s3)cc(C)cc2n1 [Example 402, (R)-1-((4-chloro-5-fluoro-2-(2-methoxy-7-methylquinoxalin-5-yl)benzo[d]thiazol-6-yl)oxy)propan-2-yl (6-fluoro-5-methylpyridin-3-yl)carbamate]
1.7 | COc1cnc2c(-c3nc4c(Cl)c(F)c(OC[C@@H](C)OC(=O)Nc5ccc(Br)nc5)cc4s3)cc(C)cc2n1 [Example 403, (R)-1-((4-chloro-5-fluoro-2-(2-methoxy-7-methylquinoxalin-5-yl)benzo[d]thiazol-6-yl)oxy)propan-2-yl (6-bromopyridin-3-yl)carbamate]
2.2 | COc1cnc2c(-c3nc4c(Cl)c(F)c(O[C@@H](C)[C@@H](C)OC(=O)Nc5cccnc5)cc4s3)cc(C)cc2n1 [Example 404, (2R,3S)-3-((4-chloro-5-fluoro-2-(2-methoxy-7-methylquinoxalin-5-yl)benzo[d]thiazol-6-yl)oxy)butan-2-yl pyridin-3-ylcarbamate]
1.9 | COc1cnc2c(-c3nc4cc(F)c(O[C@@H](C)[C@@H](C)OC(=O)Nc5ccc(C)nc5)cc4s3)cc(C)cc2n1 [Example 405, (2R,3S)-3-((5-fluoro-2-(2-methoxy-7-methylquinoxalin-5-yl)benzo[d]thiazol-6-yl)oxy)butan-2-yl (6-methylpyridin-3-yl)carbamate]
3.5 | COc1cnc2c(-c3nc4cc(F)c(O[C@@H](C)[C@@H](C)OC(=O)Nc5ccc6[nH]c(=O)oc6c5)cc4s3)cc(C)cc2n1 [Example 406, (2R,3S)-3-((5-fluoro-2-(2-methoxy-7-methylquinoxalin-5-yl)benzo[d]thiazol-6-yl)oxy)butan-2-yl (2-oxo-2,3-dihydrobenzo[d]oxazol-6-yl)carbamate]
0.9 | COc1cnc2c(-c3nc4cc(F)c(O[C@@H](C)[C@@H](C)OC(=O)Nc5cnc(OC)nc5)cc4s3)cc(C)cc2n1 [Example 407, (2R,3S)-3-((5-fluoro-2-(2-methoxy-7-methylquinoxalin-5-yl)benzo[d]thiazol-6-yl)oxy)butan-2-yl (2-methoxypyrimidin-5-yl)carbamate]
3.2 | COc1cnc2c(-c3nc4cc(F)c(OC[C@@H](C)OC(=O)Nc5cnc(OC)nc5)cc4s3)cc(C)cc2n1 [Example 408, (R)-1-((5-fluoro-2-(2-methoxy-7-methylquinoxalin-5-yl)benzo[d]thiazol-6-yl)oxy)propan-2-yl (2-methoxypyrimidin-5-yl)carbamate]

The next lines start with the molecule.

SMILES | IC50 [nM]
COc1cnc2c(-c3nc4c(Cl)c(F)c(OCCOC(=O)Nc5cncs5)cc4s3)cc(C)cc2n1 [Example 384, 2-((4-chloro-5-fluoro-2-(2-methoxy-7-methylquinoxalin-5-yl)benzo[d]thiazol-6-yl)oxy)ethyl thiazol-5-ylcarbamate] | 18
COc1cnc2c(-c3nc4c(Cl)c(F)c(OC[C@@H](C)OC(=O)Nc5ccc(CO)nc5)cc4s3)cc(C)cc2n1 [Example 385, (R)-1-((4-chloro-5-fluoro-2-(2-methoxy-7-methylquinoxalin-5-yl)benzo[d]thiazol-6-yl)oxy)propan-2-yl (6-(hydroxymethyl)pyridin-3-yl)carbamate] | 2.3
COc1cnc2c(-c3nc4cc(F)c(O[C@@H](C)[C@@H](C)OC(=O)Nc5cnc(C)nc5)cc4s3)cc(C)cc2n1 [Example 386, (2R,3S)-3-((5-fluoro-2-(2-methoxy-7-methylquinoxalin-5-yl)benzo[d]thiazol-6-yl)oxy)butan-2-yl (2-methylpyrimidin-5-yl)carbamate] | 7.8
COc1cnc2c(-c3nc4cc(F)c(O[C@@H](C)[C@@H](C)OC(=O)Nc5ccc(CCO)nc5)cc4s3)cc(C)cc2n1 [Example 387, (2R,3S)-3-((5-fluoro-2-(2-methoxy-7-methylquinoxalin-5-yl)benzo[d]thiazol-6-yl)oxy)butan-2-yl (6-(2-hydroxyethyl)pyridin-3-yl)carbamate] | 1.5
COc1cnc2c(-c3nc4cc(F)c(O[C@@H](C)[C@@H](C)OC(=O)Nc5ccnc(OCCO)c5)cc4s3)cc(C)cc2n1 [Example 388, (2R,3S)-3-((5-fluoro-2-(2-methoxy-7-methylquinoxalin-5-yl)benzo[d]thiazol-6-yl)oxy)butan-2-yl (2-(2-hydroxyethoxy)pyridin-4-yl)carbamate] | 0.7
CCOc1cnc2c(-c3nc4cc(F)c(O[C@@H](C)[C@@H](C)OC(=O)Nc5cnc(C)nc5)cc4s3)cc(C)cc2n1 [Example 389, (2R,3S)-3-((2-(2-ethoxy-7-methylquinoxalin-5-yl)-5-fluorobenzo[d]thiazol-6-yl)oxy)butan-2-yl (2-methylpyrimidin-5-yl)carbamate] | 0.4
CNc1cnc2c(-c3nc4cc(F)c(O[C@@H](C)[C@@H](C)OC(=O)Nc5cnc(C)nc5)cc4s3)cc(C)cc2n1 [Example 390, (2R,3S)-3-((5-fluoro-2-(7-methyl-2-(methylamino)quinoxalin-5-yl)benzo[d]thiazol-6-yl)oxy)butan-2-yl (2-methylpyrimidin-5-yl)carbamate] | 3.6
COc1cnc2c(-c3nc4c(Cl)c(F)c(OCCOC(=O)Nc5ccc(C#N)nc5)cc4s3)cc(C)cc2n1 [Example 395, 2-((4-chloro-5-fluoro-2-(2-methoxy-7-methylquinoxalin-5-yl)benzo[d]thiazol-6-yl)oxy)ethyl (6-cyanopyridin-3-yl)carbamate] | 5.8
COc1cnc2c(-c3nc4c(Cl)c(F)c(OCCOC(=O)NCc5ccccn5)cc4s3)cc(C)cc2n1 [Example 396, 2-((4-chloro-5-fluoro-2-(2-methoxy-7-methylquinoxalin-5-yl)benzo[d]thiazol-6-yl)oxy)ethyl (pyridin-2-ylmethyl)carbamate] | 4.6
COc1cnc2c(-c3nc4c(Cl)c(F)c(OCCOC(=O)NCc5cn(C)cn5)cc4s3)cc(C)cc2n1 [Example 397, 2-((4-chloro-5-fluoro-2-(2-methoxy-7-methylquinoxalin-5-yl)benzo[d]thiazol-6-yl)oxy)ethyl ((1-methyl-1H-imidazol-4-yl)methyl)carbamate] | 210
COc1cnc2c(-c3nc4c(Cl)c(F)c(OCCOC(=O)NCc5ccn(C)n5)cc4s3)cc(C)cc2n1 [Example 398, 2-((4-chloro-5-fluoro-2-(2-methoxy-7-methylquinoxalin-5-yl)benzo[d]thiazol-6-yl)oxy)ethyl ((1-methyl-1H-pyrazol-3-yl)methyl)carbamate] | 8.6
COc1cnc2c(-c3nc4c(Cl)c(F)c(OCCOC(=O)NCc5cnn(C)c5)cc4s3)cc(C)cc2n1 [Example 399, 2-((4-chloro-5-fluoro-2-(2-methoxy-7-methylquinoxalin-5-yl)benzo[d]thiazol-6-yl)oxy)ethyl ((1-methyl-1H-pyrazol-4-yl)methyl)carbamate] | 3.9
COc1cnc2c(-c3nc4c(Cl)c(F)c(OC[C@@H](C)OC(=O)Nc5cnc(C#N)nc5)cc4s3)cc(C)cc2n1 [Example 400, (R)-1-((4-chloro-5-fluoro-2-(2-methoxy-7-methylquinoxalin-5-yl)benzo[d]thiazol-6-yl)oxy)propan-2-yl (2-cyanopyrimidin-5-yl)carbamate] | 2
